Source: the NIST ThermoML archive (doi:10.1021/je040006u)

Experiment: xn = mol fraction of the nth substance listed
Details: 101.3 kPa, Liquid, Pycnometric method

CCCNCCC [dipropylamine] + COCCO
mass density [kg/m3]
Details	291.15 K	293.15 K	298.15 K	303.15 K	308.15 K
x2 = 0	738.47	737.2	732.56	728.2	723.64
x2 = 0.0501	746.83	745.26	740.37	735.86	731.07
x2 = 0.1	754.98	753.42	748.52	743.91	739.04
x2 = 0.1502	763.4	761.9	756.9	752.27	747.36
x2 = 0.2001	772.06	770.51	765.5	760.85	755.94
x2 = 0.2508	781.14	779.61	774.59	769.92	764.98
x2 = 0.2999	790.26	788.66	783.68	778.97	774.07
x2 = 0.3502	799.92	798.35	793.28	788.57	783.65
x2 = 0.4	809.92	808.21	803.2	798.45	793.51
x2 = 0.45	820.34	818.67	813.61	808.82	803.85
x2 = 0.4999	831.06	829.4	824.3	819.53	814.5
x2 = 0.5507	842.47	840.75	835.6	830.8	825.78
x2 = 0.5982	853.45	851.69	846.6	841.77	836.69
x2 = 0.6502	866.02	864.26	859.11	854.24	849.17
x2 = 0.6999	878.41	876.59	871.47	866.58	861.5
x2 = 0.7489	891.21	889.34	884.21	879.3	874.18
x2 = 0.8015	905.66	903.7	898.54	893.64	888.51
x2 = 0.8496	919.22	917.32	912.15	907.23	902.13
x2 = 0.8997	934.42	932.35	927.21	922.3	917.11
x2 = 0.9497	950.19	948.22	943.1	938.3	933.24
